# Measurements from patent publication EP4470536A1, “COMPOUND FOR USE IN TREATING FIBRODYSPLASIA OSSIFICANS PROGRESSIVA (FOP)” (Queen's University At Kingston, priority 2023, dated 2024).
# How the values were obtained:
# [1] = Mapping a therapeutic window (ED50 versus MTD); format: in vivo; details: QD, own data compiled with mined literature data
# Excerpt: For both palovarotene and compound 1 efficacy and toxicity were correlated to the pharmacokinetic parameters AUC (area under the curve), Cmax (maximum concentration detected following compound administration), and duration above EC50/IC50.This illustrated that efficacy was best predicted by duration above the EC50/IC50 (effective concentration for 50% response (in the case of palovarotene), or for 50% inhibition (in the case of compound 1)), whereas toxicity was best predicted by Cmax. […] For palovarotene, efficacy data from Example 7 and toxicity data from Example 8 above were compiled with mined data from the following publications: • Lindborg et al (2018). "Cartilage-derived retinoic acid-sensitive protein (CD-RAP): A stage-specific biomarker of heterotopic endochondral ossification (HEO) in fibrodysplasia ossificans progressiva (FOP)." Bone 109: 153-157. • Chakkalakal, S. A., et al. (2016). "Palovarotene Inhibits Heterotopic Ossification and Maintains Limb Mobility and Growth in Mice With the Human ACVR1(R206H) Fibrodysplasia Ossificans Progressiva (FOP) Mutation." J Bone Miner Res 31(9): 1666-1675. • Inubushi, T., et al. (2018). "Palovarotene Inhibits Osteochondroma Formation in a Mouse Model of Multiple Hereditary Exostoses." J Bone Miner Res 33(4): 658-666. • Lees-Shepard, J. B., et al. (2018). […] "Potent inhibition of heterotopic ossification by nuclear retinoic acid receptor-gamma agonists." Nat Med 17(4): 454-460.
# ectopic bone formation = assay: Surgical mouse model of heterotopic ossification (rhBMP2-soaked collagen disk), micro-CT; format: in vivo, CD-1 mouse; details: Day 14
# Experimental: Heterotopic ossification (HO) driven by Bone Morphogenetic Protein (BMP) signaling has been used as a surrogate model for testing the effectiveness of drugs for treating Fibrodysplasia Ossificans Progressiva (FOP) (see, for example, Shimono K., et al. (2011). Nat Med 17, 454-460.). Collagen disks of 1mm in diameter were punched from a thin collagen foam matrix (Avitene™ Ultrafoam™ Collagen Hemostat product #1050050 lot #WBDP0038, from BD, Franklin Lakes, NJ, USA). Disks were impregnated with 1µg total of recombinant human BMP-2 (GenScript, Piscataway, NJ, USA, catalog #Z02913, lot #P50031712) on the day of surgery (5µl of 200ng/µL BMP-2, reconstituted in 20mM acetic acid solution). The rhBMP2-soaked collagen disk was surgically implanted into a small pocket made in the left gastrocnemius muscle of a 6-8 week-old male CD-1 mouse. Beginning on the day following surgery, mice were administered varying doses of compound 1 by oral gavage once daily (QD) or twice daily (every 12h; BID) for 13 days. Doses administered were: vehicle (Corn oil, QD (5M) and BID (3M) dosing or 3% DMSO in Corn oil (2M)), compound 1 18 mg/kg BID, 18 mg/kg QD, 6 mg/kg BID, 4.5 mg/kg BID, and 2 mg/kg BID (6M per group). Palovarotene high and low doses were used as comparators (1.76 mg/kg (4M) and 0.88 mg/kg QD (6M)). The palovarotene high and low doses were selected based on a study for palovarotene (Inubushi, T., et al. (2018). "Palovarotene Inhibits Osteochondroma Formation in a Mouse Model of Multiple Hereditary Exostoses." J Bone Miner Res 33(4): 658-666.), using oral treatment of mice. The inventors also verified the dose selection based on pharmacokinetic (PK) data generated in-house for palovarotene IP (intraperitoneal) and PO (oral) treatment by using the doses for IP treatment from Lees-Shepard, J. B., et al. (2018).
# At the study endpoint (Day 14: 16-30 hours after final compound treatment) left hindlimbs were removed and submitted to micro-CT (micro-computed tomography) imaging. Using this preclinical surgical model, the amount of resulting ectopic bone formation after 14 days was visualized for each of the treatment groups (Figure 6). The highly enhancing regions seen within the gastrocnemius muscle corresponded to the amount of ectopic bone formation generated at the site of collagen disk implantation, following 14 days of vehicle or drug treatment.
# The hindlimbs obtained in Example 6 above were submitted to micro-CT imaging. CT images were acquired using a VECTor^4CT pre-clinical scanner (MILabs B.V., Utrecht, Netherlands) equipped with a cone beam X-ray CT system. Scans were carried out with an acceleration voltage of 50 kVp and an X-ray tube current of 430 µA in accurate focus mode to obtain 3600 projections over a 360° scan. With a 40 ms exposure time per step, the total scan procedure took about 5 minutes with an estimated radiation dose of 3077 mGy. CT images were consequently processed using MILabs reconstruction software implementing a voxel size of 20 µm and a Hann projection filter of 25 µm to generate 3-dimensional CT images. For quantification, CT images were converted to DICOM® files using PMOD 3.9 software (PMOD Technologies Ltd., Zurich, Switzerland) for rendering using RadiAnt DICOM Viewer 4.2 software (Medixant, Poznań, Poland). The region-of-interest for all hindlimbs, reconstructed from DICOM files, was defined by outlining sites of ectopic ossification. Analysis of total ectopic bone volume was conducted via automated processes using the AnalyzePro software with the Bone Microarchitecture Analysis (BMA) add-on (AnalyzeDirect, Overland Park, Kansas). This software generates bone volume measurements from the defined area, as described by Bouxsein et al (2010). Journal of Bone and Mineral Research, 25(7), 1468-1486. Using this preclinical surgical model, the ability of compound 1 to inhibit HO (percentage from vehicle), as compared to palovarotene, was assessed and is shown in Figure 7 and in Table 1 below.
smiles,measurement,setting,value
"CC1(C)CCC(C)(C)c2cc(Cn3cccn3)c(/C=C/c3ccc(C(=O)O)cc3)cc21 [Palovarotene, palovarotene, reference compound]",ED50,[1]; Mus musculus,0.3 mg/kg
same,MTD,"[1]; mouse, in vivo",0.285 mg/kg
same,Mean bone volume (mm^3),ectopic bone formation; 0.88mg/kg,1.985 mm^3
same,percent change in HO volume from vehicle mean (%),ectopic bone formation; 0.88mg/kg,+2.5%
same,Mean bone volume (mm^3),ectopic bone formation; 1.76mg/kg QD,0.615 mm^3
same,percent change in HO volume from vehicle mean (%),ectopic bone formation; 1.76mg/kg QD,-68.2%
